Results from patent US20050049299A1, “Selective inhibitors of stat-3 activation and uses thereof” (priority 2003, published 2005).

Tests used:
Assay type in all cases: cell-based, human
STAT3 phosphorylation = test: IL-6-inducible STAT3 phosphorylation in RPMI 8226 cells (Western blot)
Protocol: FIGS. 3A-C show& that IL-6 induces STAT3 phosphorylation in human multiple myeloma RPMI 8226 cells and curcumin inhibits it. […] U266, RPMI 8226, MM.1S, MM.1R and OCl cells (2×10^6) were lysed, and 30 μg of whole-cell extracts were resolved on 7.5% SDS-PAGE, electrotransferred to a nitrocellulose membrane, and probed for phosphorylated-STAT3 (upper panel) and STAT3 (lower panel). […] Thirty micrograms of whole cell extracts were resolved on 7.5% SDS-PAGE, electrotransferred to a nitrocellulose membrane, and probed for the phosphorylated-STAT3 (upper panel) and stripped and reprobed for STAT3 (middle panel) and β-actin (lower panel).
For detection of STAT proteins, whole-cell extracts were prepared by lysing the curcumin-treated cells in lysis buffer (20 mM Tris, pH 7.4, 250 mM NaCl, 2 mM EDTA, pH 8.0, 0.1% Triton-X100, 0.01 mg/ml aprotinin, 0.005 mg/ml leupeptin, 0.4 mM PMSF, and 4 mM NaVO4). Lysates were then spun at 14000 rpm for 10 min to remove insoluble material, and resolved on a 7.5% gel. After electrophoresis, the proteins were electrotransferred to a nitrocellulose membrane, blocked with 5% nonfat milk, and probed with anti-STAT antibodies (1:1000) overnight at 4° C. The blot was washed, exposed to HRP-conjugated secondary antibodies for 1 h, and finally examined by chemiluminescence (ECL, Amersham Pharmacia Biotech. Arlington Heights, Ill.).
Since IL-6 is a growth factor for multiple myeloma and induces STAT3 phosphorylation (5, 6, 15), whether curcumin could inhibit IL-6-induced STAT3 phosphorylation was examined. […] IL-6 induced phosphorylation of STAT3 as early as 5 min and began to decline at 60 minutes (FIG. 3B). RPMI 8226 cells were then incubated with curcumin for different times and examined for IL-6-inducible STAT3 phosphorylation.
Exposure of cells to curcumin for 4 hours was sufficient to completely suppress IL-6-induced STAT3 phosphorylation. Curcumin alone had no effect on STAT3 phosphorylation in these cells (data not shown).

U266 cells = test: IL-6-induced proliferation of U266 cells (thymidine incorporation, MTT); conditions: curcumin 10 μM, 48 h, serum-free; thymidine incorporation and MTT
Protocol: (§1) FIGS. 7A-B show& that IL-6 induces proliferation of human multiple myeloma cells and curcumin inhibits it. […] Cell proliferation assays were performed as described below. Results are shown as mean (±s.d.) of percent [^3H] thymidine incorporation or percent proliferation by MTT of triplicate cultures compared to the untreated control.
(§2) The antiproliferative effects of curcumin against different multiple myeloma cell lines were determined by the MTT dye uptake method as described earlier (28). Briefly, the cells (5000/well) were incubated in triplicate in a 96-well plate in the presence or absence of indicated test samples in a final volume of 0.1 ml for 24 h at 37° C. […] The OD at 570 nm was measured using a 96-well multiscanner autoreader (Dynatech MR 5000), with the extraction buffer serving as blank. Percent cell viability cell viability was calculated using the following formula: Percent cell viability=(OD of the experiment samples/OD of the control)×100.
(§3) The antiproliferative effects of curcumin were also monitored by the thymidine incorporation method. […] Six hours before the completion of experiment, cells were pulse treated with 0.5 μCi [^3H]thymidine, and the uptake of [^3H]thymidine was monitored using a Matrix-9600 β-counter (Packard Instruments, Downers Grove, Ill.). […]
(§4) Whether curcumin suppresses the proliferative effects of IL-6 was determined.

MM.1R cells = test: IL-6-induced proliferation of MM.1R cells; conditions: curcumin 10 μM, 48 h, serum-free
Protocol: as §1, §2, §3, §4

[1] = test system: STAT3 nuclear translocation; test: STAT3 distribution in HNSCC cells (immunocytochemistry, Alexa fluorochrome); conditions: MDA 1986LN, MDA 686LN and JMAR cells, 50 μM, 2 hrs
Protocol: MDA 1986LN, MDA 686LN and JMAR cells were incubated with either media alone or with curcumin (50 μM) for 2 hrs and then analyzed by immunocytochemistry using Alexa fluorochrome for the distribution of STAT3 (original magnification ×200). […] The same procedure as mentioned above was performed on the same cells and the p-STAT3 analyzed by immunocytochemistry using horse radish peroxidase stain (original magnification ×200).
Since STAT3 retained in the cytoplasm under resting conditions and in the non-phosphorylated state translocates to nucleus when phosphorylated, the effect of curcumin on the distribution of STAT3 was examined. To accomplish this, curcumin-treated and untreated MDA 1986LN, MDA 686LN and JMAR cells were analyzed for distribution of STAT3 by immunocytochemistry using ALEXA fluorochrome.

MDA 1986LN cells = test: Proliferation of MDA 1986LN cells (MTT assay)
Protocol: MDA 1986LN cells (2×10^6 cells) were treated with indicated concentrations of AG490 for 8 h and whole extracts prepared. These whole-cell extracts (30 μg) were resolved on 7.5% SDS-PAGE, electrotransferred to a nitrocellulose membrane, probed for p-STAT3 (upper panel), striped and reprobed for STAT3 (middle panel) and β-actin (lower panel). […] The cells were treated with AG490 (100 μM) for the indicated durations and whole cell extracts prepared and analyzed as mentioned earlier. FIG. 15C compares the effect of curcumin and AG490 on proliferation of MDA 1986LN cells by MTT assay.
Further, the proliferation of MDA 1986LN cells when treated with curcumin was compared with AG490 treated cells by performing MTT assay.

COc1cc(/C=C/C(=O)CC(=O)/C=C/c2ccc(O)c(OC)c2)ccc1O [curcumin, diferuloylmethane] was tested. Which “exposure sufficient to completely suppress IL-6-induced STAT3 phosphorylation” value (STAT3 phosphorylation; 50 μM curcumin, IL-6 10 ng/ml 10 min) did it give?
The value was 4 h.

What about the “effect of curcumin alone on STAT3 phosphorylation” value (STAT3 phosphorylation; without IL-6 (data not shown)) of the same compound?
Its value is “no effect”.

And the “IL-6-induced proliferation of U266 cells” value (U266 cells)?
The value was “completely inhibited”.

And the “IL-6-induced cell proliferation in MM.1R cells” value (MM.1R cells)?
The value was “inhibited IL-6-induced cell proliferation”.

And the “translocation of STAT3 to the nucleus” value [1]?
Its value is “prevented the translocation of STAT3 to the nucleus”.

And the “inhibition of proliferation of MDA 1986LN cells compared with AG490” value (MDA 1986LN cells)?
Its value is “more efficiently that AG490”.
